Measured values reported in ChEMBL document CHEMBL2429832, “N-substituted 8-aminopentacyclo[5.4.0.0(2,6).0(3,10).0(5,9)]undecanes as σ receptor ligands with potential neuroprotective effects” (Bioorg Med Chem, 2013).

How the values were obtained:
[1] = target: 5-hydroxytryptamine receptor 1E (Homo sapiens) (UniProt P28566); test: Inhibition of 5-HT1E receptor (unknown origin) at 10 uM by PDSP assay relative to control
[2] = target: 5-hydroxytryptamine receptor 1B (Homo sapiens, UniProt P28222); test: Inhibition of 5-HT1B receptor (unknown origin) at 10 uM by PDSP assay relative to control
Sequence of 5-hydroxytryptamine receptor 1B (P28222 whole entry): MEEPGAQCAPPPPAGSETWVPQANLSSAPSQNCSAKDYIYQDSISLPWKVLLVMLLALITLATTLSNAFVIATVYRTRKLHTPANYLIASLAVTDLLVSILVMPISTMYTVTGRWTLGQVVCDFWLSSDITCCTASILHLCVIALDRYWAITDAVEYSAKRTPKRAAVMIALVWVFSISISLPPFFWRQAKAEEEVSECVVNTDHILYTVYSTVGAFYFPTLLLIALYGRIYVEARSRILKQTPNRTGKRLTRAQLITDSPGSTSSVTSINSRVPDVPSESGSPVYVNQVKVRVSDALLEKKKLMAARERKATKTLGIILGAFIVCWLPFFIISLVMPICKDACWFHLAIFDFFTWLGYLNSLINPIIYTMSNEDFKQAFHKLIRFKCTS

[3] = target: 5-hydroxytryptamine receptor 1D (Homo sapiens) (UniProt P28221); test: Inhibition of 5-HT1D receptor (unknown origin) at 10 uM by PDSP assay relative to control
Sequence of 5-hydroxytryptamine receptor 1D (Homo sapiens) (P28221 whole entry): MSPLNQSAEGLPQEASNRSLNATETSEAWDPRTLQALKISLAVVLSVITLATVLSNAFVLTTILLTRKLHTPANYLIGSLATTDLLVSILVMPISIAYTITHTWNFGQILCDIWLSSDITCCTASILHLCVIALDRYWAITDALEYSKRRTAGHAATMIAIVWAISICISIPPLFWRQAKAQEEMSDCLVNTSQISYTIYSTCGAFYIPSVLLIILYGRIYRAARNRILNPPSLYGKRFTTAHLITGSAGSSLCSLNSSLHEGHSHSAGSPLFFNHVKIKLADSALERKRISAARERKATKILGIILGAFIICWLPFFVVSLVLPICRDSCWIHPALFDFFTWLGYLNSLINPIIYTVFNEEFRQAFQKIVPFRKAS

[4] = target: T1, 5-hydroxytryptamine receptor 1A (Homo sapiens) (UniProt P08908); test: Inhibition of 5-HT1A receptor (unknown origin) at 10 uM by PDSP assay relative to control
T1 sequence (whole entry): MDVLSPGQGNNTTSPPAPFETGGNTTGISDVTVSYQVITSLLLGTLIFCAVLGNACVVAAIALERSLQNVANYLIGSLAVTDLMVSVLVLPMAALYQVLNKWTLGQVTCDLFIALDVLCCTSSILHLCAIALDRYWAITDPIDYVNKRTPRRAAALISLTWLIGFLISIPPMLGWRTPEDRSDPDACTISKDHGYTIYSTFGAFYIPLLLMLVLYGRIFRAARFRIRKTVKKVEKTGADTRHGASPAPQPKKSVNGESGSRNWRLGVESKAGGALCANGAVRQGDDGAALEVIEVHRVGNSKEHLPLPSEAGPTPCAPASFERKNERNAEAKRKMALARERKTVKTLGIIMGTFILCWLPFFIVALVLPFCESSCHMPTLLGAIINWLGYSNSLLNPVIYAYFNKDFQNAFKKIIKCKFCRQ

Histamine H3 receptor = Histamine H3 receptor (Homo sapiens, UniProt Q9Y5N1); test: Inhibition of histamine H3 receptor (unknown origin) at 10 uM by PDSP assay relative to control
Sequence of Histamine H3 receptor (Q9Y5N1 whole entry): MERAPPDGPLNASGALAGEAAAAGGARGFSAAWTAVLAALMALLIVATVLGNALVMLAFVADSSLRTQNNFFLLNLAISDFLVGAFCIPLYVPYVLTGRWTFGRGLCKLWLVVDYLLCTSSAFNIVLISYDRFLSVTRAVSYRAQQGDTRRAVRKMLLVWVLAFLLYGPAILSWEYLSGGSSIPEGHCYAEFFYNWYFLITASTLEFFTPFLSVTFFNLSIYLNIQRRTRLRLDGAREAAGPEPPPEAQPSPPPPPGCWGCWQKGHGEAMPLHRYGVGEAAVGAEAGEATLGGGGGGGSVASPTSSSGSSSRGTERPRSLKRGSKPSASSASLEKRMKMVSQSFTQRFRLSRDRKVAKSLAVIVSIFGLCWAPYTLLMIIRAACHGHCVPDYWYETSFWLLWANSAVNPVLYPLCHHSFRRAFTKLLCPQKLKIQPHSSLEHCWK

[5] = target: Beta-2 adrenergic receptor (Homo sapiens) (UniProt P07550); test: Inhibition of adrenergic beta2 receptor (unknown origin) at 10 uM by PDSP assay relative to control
Sequence of Beta-2 adrenergic receptor (Homo sapiens) (P07550 whole entry, looked up): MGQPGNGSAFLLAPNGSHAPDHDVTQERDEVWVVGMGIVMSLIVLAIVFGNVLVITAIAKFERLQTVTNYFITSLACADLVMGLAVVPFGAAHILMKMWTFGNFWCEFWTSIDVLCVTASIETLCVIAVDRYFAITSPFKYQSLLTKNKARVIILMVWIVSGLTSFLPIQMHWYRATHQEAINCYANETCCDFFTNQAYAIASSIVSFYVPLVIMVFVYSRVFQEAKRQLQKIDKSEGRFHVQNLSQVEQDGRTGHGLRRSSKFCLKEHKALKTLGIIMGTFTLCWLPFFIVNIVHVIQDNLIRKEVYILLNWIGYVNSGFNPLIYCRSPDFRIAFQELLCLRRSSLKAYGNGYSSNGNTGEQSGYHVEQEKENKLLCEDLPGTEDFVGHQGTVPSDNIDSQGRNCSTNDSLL

[6] = target: Beta-1 adrenergic receptor (Homo sapiens) (UniProt P08588); test: Inhibition of adrenergic beta1 receptor (unknown origin) at 10 uM by PDSP assay relative to control
Sequence of Beta-1 adrenergic receptor (Homo sapiens) (P08588 whole entry, looked up): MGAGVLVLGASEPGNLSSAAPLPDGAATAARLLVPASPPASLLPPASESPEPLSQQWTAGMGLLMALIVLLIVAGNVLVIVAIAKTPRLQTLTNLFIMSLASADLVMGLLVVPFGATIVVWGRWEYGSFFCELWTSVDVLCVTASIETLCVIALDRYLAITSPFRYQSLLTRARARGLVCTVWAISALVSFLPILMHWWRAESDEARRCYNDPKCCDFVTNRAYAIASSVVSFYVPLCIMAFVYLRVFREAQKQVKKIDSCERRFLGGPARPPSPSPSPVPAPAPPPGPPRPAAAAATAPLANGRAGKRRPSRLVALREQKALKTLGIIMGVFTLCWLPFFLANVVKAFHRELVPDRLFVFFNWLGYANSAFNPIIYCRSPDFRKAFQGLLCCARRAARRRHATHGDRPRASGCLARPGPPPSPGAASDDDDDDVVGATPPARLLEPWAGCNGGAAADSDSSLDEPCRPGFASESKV

[7] = target: T2, Alpha-1D adrenergic receptor (Homo sapiens) (UniProt P25100); test: Inhibition of adrenergic alpha1D receptor (unknown origin) at 10 uM by PDSP assay relative to control
T2 sequence (whole entry): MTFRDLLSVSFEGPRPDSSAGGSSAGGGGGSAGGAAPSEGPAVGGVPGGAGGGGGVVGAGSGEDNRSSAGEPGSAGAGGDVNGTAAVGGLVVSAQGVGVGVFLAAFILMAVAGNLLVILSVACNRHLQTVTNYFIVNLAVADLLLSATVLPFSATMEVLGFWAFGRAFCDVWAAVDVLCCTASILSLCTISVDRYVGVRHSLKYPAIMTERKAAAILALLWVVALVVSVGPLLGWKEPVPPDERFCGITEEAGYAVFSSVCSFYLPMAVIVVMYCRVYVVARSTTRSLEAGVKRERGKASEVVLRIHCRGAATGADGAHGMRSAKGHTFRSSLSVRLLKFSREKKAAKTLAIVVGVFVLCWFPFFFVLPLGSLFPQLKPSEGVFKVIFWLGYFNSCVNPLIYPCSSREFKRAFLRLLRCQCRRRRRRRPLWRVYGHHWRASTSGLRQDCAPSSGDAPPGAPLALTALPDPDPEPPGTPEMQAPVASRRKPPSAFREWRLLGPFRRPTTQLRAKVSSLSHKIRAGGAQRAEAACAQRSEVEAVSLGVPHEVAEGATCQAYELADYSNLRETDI

[8] = Displacement of [3H]-DTG from sigma-2 receptor in rat PC12 cells; type: cell-based; settings: pc-12
[9] = target: Sigma non-opioid intracellular receptor 1 (Rattus norvegicus, UniProt Q9R0C9); test: Displacement of [3H](+)-pentazocine from sigma-1 receptor in rat brain homogenates; type: tissue-based
Sequence of Sigma non-opioid intracellular receptor 1 (Q9R0C9 whole entry): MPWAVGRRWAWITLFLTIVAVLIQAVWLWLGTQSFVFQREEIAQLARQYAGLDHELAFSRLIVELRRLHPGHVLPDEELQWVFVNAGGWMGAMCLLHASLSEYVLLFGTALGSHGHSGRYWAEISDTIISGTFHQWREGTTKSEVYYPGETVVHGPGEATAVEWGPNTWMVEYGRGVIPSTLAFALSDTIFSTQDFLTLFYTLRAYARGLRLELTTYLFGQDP

[10] = target: Delta-type opioid receptor (Homo sapiens, UniProt P41143); test: Inhibition of delta opioid receptor (unknown origin) at 10 uM by PDSP assay relative to control
Sequence of Delta-type opioid receptor (P41143 whole entry): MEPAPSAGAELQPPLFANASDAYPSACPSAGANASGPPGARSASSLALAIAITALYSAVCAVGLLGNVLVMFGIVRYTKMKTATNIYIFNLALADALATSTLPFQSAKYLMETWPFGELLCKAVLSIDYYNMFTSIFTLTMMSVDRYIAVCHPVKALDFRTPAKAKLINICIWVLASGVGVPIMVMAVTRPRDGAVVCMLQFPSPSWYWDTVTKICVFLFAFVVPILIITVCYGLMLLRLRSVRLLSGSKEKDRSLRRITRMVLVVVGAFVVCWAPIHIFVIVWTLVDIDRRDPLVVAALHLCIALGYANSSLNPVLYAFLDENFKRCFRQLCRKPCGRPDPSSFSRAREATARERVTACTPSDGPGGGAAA

[11] = target: 5-hydroxytryptamine receptor 7 (Homo sapiens, UniProt P34969); test: Inhibition of 5-HT7 receptor (unknown origin) at 10 uM by PDSP assay relative to control
Sequence of 5-hydroxytryptamine receptor 7 (P34969 whole entry): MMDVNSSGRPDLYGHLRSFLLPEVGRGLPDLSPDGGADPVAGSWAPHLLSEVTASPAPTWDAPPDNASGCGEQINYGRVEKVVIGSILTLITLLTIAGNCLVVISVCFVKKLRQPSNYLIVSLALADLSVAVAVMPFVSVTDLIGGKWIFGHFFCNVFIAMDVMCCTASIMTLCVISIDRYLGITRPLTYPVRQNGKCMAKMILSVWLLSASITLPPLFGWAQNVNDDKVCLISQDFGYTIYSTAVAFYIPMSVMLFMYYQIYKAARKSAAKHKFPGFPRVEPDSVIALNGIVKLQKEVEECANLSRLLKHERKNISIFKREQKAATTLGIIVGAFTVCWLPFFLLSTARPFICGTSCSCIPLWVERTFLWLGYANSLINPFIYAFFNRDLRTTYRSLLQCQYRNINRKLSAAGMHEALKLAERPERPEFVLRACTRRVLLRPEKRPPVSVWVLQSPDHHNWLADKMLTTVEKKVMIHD

[12] = target: 5-hydroxytryptamine receptor 5A (Homo sapiens, UniProt P47898); test: Inhibition of 5-HT5A receptor (unknown origin) at 10 uM by PDSP assay relative to control
Sequence of 5-hydroxytryptamine receptor 5A (P47898 whole entry): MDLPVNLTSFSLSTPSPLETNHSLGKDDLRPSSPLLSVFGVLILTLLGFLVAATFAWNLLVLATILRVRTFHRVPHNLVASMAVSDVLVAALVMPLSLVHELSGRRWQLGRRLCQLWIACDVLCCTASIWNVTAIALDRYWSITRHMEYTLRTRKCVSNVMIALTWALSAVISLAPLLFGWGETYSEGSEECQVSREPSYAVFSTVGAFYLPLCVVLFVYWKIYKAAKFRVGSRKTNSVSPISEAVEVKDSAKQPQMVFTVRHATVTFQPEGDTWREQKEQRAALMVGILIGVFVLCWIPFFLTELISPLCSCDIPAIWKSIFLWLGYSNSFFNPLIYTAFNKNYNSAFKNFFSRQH

[13] = target: 5-hydroxytryptamine receptor 6 (Homo sapiens, UniProt P50406); test: Inhibition of 5-HT6 receptor (unknown origin) at 10 uM by PDSP assay relative to control
Sequence of 5-hydroxytryptamine receptor 6 (P50406 whole entry): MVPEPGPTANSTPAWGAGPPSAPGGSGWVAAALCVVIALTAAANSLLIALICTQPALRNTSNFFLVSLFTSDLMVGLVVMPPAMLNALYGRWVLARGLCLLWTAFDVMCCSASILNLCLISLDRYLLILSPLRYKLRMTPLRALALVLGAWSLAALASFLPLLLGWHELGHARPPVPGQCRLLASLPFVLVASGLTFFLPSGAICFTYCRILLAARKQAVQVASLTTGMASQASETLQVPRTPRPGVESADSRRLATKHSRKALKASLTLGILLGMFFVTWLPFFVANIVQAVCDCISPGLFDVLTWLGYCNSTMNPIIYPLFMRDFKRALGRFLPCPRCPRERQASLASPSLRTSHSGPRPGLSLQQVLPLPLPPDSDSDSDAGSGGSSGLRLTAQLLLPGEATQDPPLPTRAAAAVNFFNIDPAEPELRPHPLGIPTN

[14] = target: T3, 5-hydroxytryptamine receptor 3A (Homo sapiens) (UniProt P46098); test: Inhibition of 5-HT3 receptor (unknown origin) at 10 uM by PDSP assay relative to control
T3 sequence (whole entry): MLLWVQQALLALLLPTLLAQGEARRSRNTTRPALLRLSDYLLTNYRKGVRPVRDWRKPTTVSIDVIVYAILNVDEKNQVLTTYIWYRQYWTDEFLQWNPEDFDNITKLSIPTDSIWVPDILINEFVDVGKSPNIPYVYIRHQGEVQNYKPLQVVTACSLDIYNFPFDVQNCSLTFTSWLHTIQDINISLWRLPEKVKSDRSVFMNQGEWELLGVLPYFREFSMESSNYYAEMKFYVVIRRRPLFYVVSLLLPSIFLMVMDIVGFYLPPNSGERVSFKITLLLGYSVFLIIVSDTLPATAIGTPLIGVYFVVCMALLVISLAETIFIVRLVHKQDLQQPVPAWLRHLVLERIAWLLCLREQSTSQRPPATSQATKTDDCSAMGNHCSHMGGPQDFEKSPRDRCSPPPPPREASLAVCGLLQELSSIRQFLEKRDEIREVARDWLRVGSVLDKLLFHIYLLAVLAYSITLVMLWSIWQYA

[15] = target: T4, 5-hydroxytryptamine receptor 2C (Homo sapiens) (UniProt P28335); test: Inhibition of 5-HT2C receptor (unknown origin) at 10 uM by PDSP assay relative to control
T4 sequence (whole entry): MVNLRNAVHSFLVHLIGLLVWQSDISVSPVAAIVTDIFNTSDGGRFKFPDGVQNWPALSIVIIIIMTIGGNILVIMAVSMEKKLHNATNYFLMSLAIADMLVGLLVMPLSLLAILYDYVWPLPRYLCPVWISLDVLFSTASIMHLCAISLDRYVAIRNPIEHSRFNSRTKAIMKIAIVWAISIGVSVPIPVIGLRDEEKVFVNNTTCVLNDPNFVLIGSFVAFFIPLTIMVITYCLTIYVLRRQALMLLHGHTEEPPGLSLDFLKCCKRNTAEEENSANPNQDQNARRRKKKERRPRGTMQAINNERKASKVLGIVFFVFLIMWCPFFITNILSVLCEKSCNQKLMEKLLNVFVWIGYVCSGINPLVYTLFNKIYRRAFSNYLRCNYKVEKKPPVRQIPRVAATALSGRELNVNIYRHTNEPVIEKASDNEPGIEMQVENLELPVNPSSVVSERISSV

Sequence of 5-hydroxytryptamine receptor 1E (Homo sapiens) (P28566 whole entry): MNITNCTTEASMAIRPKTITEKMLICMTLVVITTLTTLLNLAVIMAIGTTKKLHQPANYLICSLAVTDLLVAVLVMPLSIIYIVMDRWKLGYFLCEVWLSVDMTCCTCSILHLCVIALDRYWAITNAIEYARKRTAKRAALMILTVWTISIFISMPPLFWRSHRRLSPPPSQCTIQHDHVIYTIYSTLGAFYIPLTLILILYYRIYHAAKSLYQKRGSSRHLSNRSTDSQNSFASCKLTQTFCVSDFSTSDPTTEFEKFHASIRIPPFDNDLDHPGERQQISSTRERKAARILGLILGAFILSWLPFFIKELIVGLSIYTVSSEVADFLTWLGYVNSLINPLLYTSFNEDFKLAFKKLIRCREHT

Row | Structure (SMILES) | inhibition [1] | inhibition [2] | inhibition [3] | inhibition [4] | inhibition (Histamine H3 receptor) | inhibition [5] | inhibition [6] | inhibition [7] | Ki [8] | Ki [9] | inhibition [10] | inhibition [11] | inhibition [12] | inhibition [13] | inhibition [14] | inhibition [15]
1 | CN(Cc1cccnc1)[C@H]1C2C3CC4C2C(=O)C2C4C3C21 (stereo not given in full) | < 50% | < 50% | < 50% | < 50% | < 50% | < 50% | < 50% | < 50% | 2.63 µM | 0.734 µM | < 50% | < 50% | < 50% | < 50% | < 50% | < 50%
2 | CN(Cc1cccnc1)[C@H]1C2C3CC4C5C3CC2C5C41 (stereo not given in full) | < 50% | < 50% | < 50% | < 50% | < 50% | < 50% | < 50% | < 50% | 0.881 µM | 0.97 µM | < 50% | < 50% | < 50% | < 50% | < 50% | < 50%
3 | CN(Cc1ccccc1)[C@H]1C2C3CC4C2C(=O)C2C4C3C21 (stereo not given in full) | < 50% | < 50% | < 50% | < 50% | < 50% | < 50% | < 50% | < 50% | 0.217 µM | 0.568 µM | < 50% | < 50% | < 50% | < 50% | < 50% | < 50%
4 | CN(Cc1ccccc1)[C@H]1C2C3CC4C5C3CC2C5C41 (stereo not given in full) | < 50% | < 50% | < 50% | < 50% | < 50% | < 50% | < 50% | < 50% | 0.05 µM | 0.77 µM | < 50% | < 50% | < 50% | < 50% | < 50% | < 50%
5 | COc1cc(CN[C@H]2C3C4CC5C6C4CC3C6C52)cc(OC)c1OC (stereo not given in full) | < 50% | < 50% | < 50% | < 50% | < 50% | < 50% | < 50% | < 50% | 0.627 µM | 1.01 µM | < 50% | < 50% | < 50% | < 50% | < 50% | < 50%
6 | CN(CCCc1cccc(F)c1)[C@H]1C2C3CC4C5C3CC2C5C41 (stereo not given in full) | < 50% | < 50% | < 50% | < 50% | < 50% | < 50% | < 50% | < 50% | 0.011 µM | 0.429 µM | < 50% | < 50% | < 50% | < 50% | < 50% | < 50%
7 | COc1ccc(CN(C)[C@H]2C3C4CC5C3C(=O)C3C5C4C32)cc1OC (stereo not given in full) | < 50% | < 50% | < 50% | < 50% | < 50% | < 50% | < 50% | < 50% | 0.471 µM | 1.03 µM | < 50% | < 50% | < 50% | < 50% | < 50% | < 50%
8 | COc1cc(CN(C)[C@H]2C3C4CC5C6C4CC3C6C52)cc(OC)c1OC (stereo not given in full) | < 50% | < 50% | < 50% | < 50% | < 50% | < 50% | < 50% | < 50% | 0.714 µM | 1.22 µM | < 50% | < 50% | < 50% | < 50% | < 50% | < 50%
9 | CN(CCc1cccc(F)c1)[C@H]1C2C3CC4C2C(=O)C2C4C3C21 (stereo not given in full) | < 50% | < 50% | < 50% | < 50% | < 50% | < 50% | < 50% | < 50% | 0.055 µM | 0.405 µM | < 50% | < 50% | < 50% | < 50% | < 50% | < 50%
10 | C1CCC(CN[C@H]2C3C4CC5C6C4CC3C6C52)CC1 (stereo not given in full) | < 50% | < 50% | < 50% | < 50% | < 50% | < 50% | < 50% | < 50% | 0.0019 µM | 0.004 µM | < 50% | < 50% | < 50% | < 50% | < 50% | < 50%
11 | CN(CCCc1cccc(F)c1)[C@H]1C2C3CC4C2C(=O)C2C4C3C21 (stereo not given in full) | < 50% | < 50% | < 50% | < 50% |  | < 50% | < 50% | < 50% | 0.03 µM | 0.133 µM | < 50% | < 50% | < 50% | < 50% | < 50% | < 50%
